Assay results published in ChEMBL document CHEMBL1201862, “PubChem BioAssay data set” (2004).
Active and inactive are the calls of the source.

Key:
[1] = growth suppression of PTEN-null colon cells, dose response, cell-based, HCT116 PTEN knockout (AID 1047); type: functional;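 note: HCT116 colon tumor cells with PTEN knocked out; cells exposed to compound for 60 hours before readout; potency for loss of cell viability measured by luminescence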
[2] = growth suppression of beta-catenin-knockout colon cells, dose response, cell-based, HCT116, human colon tumor (AID 1045); type: functional;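 note: HCT116 colon tumor cells with beta catenin knocked out; cells exposed to compound for 60 hours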
[3] = target: Glycogen synthase kinase-3 alpha (Homo sapiens, UniProt P49840); test: Inhibition of Human GSK-3 alpha Activity Measured in Biochemical System Using Microfluidics - 2063-06_Inhibitor_Dose_DryPowder_Activity_Set2. [Related pubchem assays (depositor defined):AID2709]
[4] = target: Glycogen synthase kinase-3 beta (Homo sapiens, UniProt P49841); test: Inhibition of Human GSK-3 beta Activity Measured in Biochemical System Using Microfluidics - 2063-05_Inhibitor_Dose_DryPowder_Activity_Set2. [Related pubchem assays (depositor defined):AID2709]
[5] = target: Dual specificity protein kinase CLK1 (Homo sapiens, UniProt P49759); test: CLK1 kinase inhibitors, off-target check, dose response, selectivity assay for Dyrk1A inhibitor project, biochemical, cherry-picked samples (AID 588811)
[6] = target: Dual specificity tyrosine-phosphorylation-regulated kinase 1A (Rattus norvegicus, UniProt Q63470); type: biochemical, Homo sapiens
[7] = target: Melanocortin receptor 4 (Homo sapiens, UniProt P32245); test: MC4R antagonist potency on cAMP, dose response, cell-based, TR-FRET, biased antagonists (AID 602298); type: functional;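 note: antagonist potency against agonist-stimulated cAMP production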
[8] = nonselective inhibitors of cellular cAMP signaling, dose response, counter-screen for MC4R biased antagonist project, cell-based, TR-FRET cAMP detection (AID 602305); type: functional;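 note: U2OS cells stimulated with forskolin near its EC80 as the cAMP inducer; potency is for inhibition of forskolin-stimulated cAMP signaling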
[9] = target: T1, High affinity choline transporter 1 (Homo sapiens, UniProt Q9GZV3); test: CHT inhibitors, dose response, cell-based, 5-point CRC, membrane potential dye (AID 504840); type: functional
T1 sequence (Q9GZV3 whole entry): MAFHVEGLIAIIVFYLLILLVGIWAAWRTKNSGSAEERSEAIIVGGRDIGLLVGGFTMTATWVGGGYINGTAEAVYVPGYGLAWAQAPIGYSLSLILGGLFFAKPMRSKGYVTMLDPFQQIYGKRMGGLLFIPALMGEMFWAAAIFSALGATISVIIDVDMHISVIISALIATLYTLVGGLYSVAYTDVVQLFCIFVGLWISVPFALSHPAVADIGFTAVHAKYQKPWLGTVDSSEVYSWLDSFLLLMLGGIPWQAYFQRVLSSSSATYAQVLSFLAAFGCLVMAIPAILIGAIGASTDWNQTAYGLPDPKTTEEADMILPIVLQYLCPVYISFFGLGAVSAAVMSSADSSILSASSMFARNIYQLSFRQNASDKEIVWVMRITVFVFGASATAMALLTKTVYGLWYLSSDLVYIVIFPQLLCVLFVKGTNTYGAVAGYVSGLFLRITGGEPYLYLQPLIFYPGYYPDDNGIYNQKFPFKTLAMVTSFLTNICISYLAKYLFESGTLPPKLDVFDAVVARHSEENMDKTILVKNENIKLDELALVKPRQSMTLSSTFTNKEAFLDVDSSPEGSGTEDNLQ

[10] = target: T1, High affinity choline transporter 1; test: CHT inhibitors, dose response, cell-based, 10-point CRC, membrane potential dye (AID 588401); type: functional;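 note: membrane potential dye fluorescence of choline-evoked depolarization via CHT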
[11] = Luminescence-based counterscreen assay for KLF5 inhibitors: dose response cell-based high throughput screening assay to identify cytotoxic compounds using the IEC-6 intestinal epithelial cell line. [Related pubchem assays: 1700 (Primary screen.), 1834 (Confirmation screen.), 1858 (Summary AID.), 1905 (Counterscreen.)]; type: functional
[12] = system: Jurkat; test: antigen receptor-induced NF-kB inhibitors, dose response, Jurkat, luciferase reporter, luminescence, B- and T-cell (AID 489004); type: functional, cell-based; details: Homo sapiens;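 note: NF-kB luciferase reporter Jurkat cells stimulated with PMA plus ionomycin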
[13] = cytotoxicity in HEK-293T NF-kB-Luc cells, dose response, cytotoxicity control for B/T-cell NF-kB inhibitor project, cell-based, uHTS hits (AID 489019); type: functional;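 note: IC50 reflects cytotoxicity as loss of cell viability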
[14] = target: Luciferin 4-monooxygenase (Photinus pyralis, UniProt P08659); test: firefly luciferase enzyme inhibitors, dose response, biochemical, dry powder samples, plate reader (AID 588451)
[15] = system: H4; test: inhibitors of control reporter signal in H4 cells – cell-based, plate reader, dry powder samples, counter-screen for prion reporter project, dose response (AID 540255); type: functional; details: Homo sapiens
[16] = system: H4; test: Amyloid Precursor 5' UTR neuroblastoma cell reporter line Measured in Cell-Based System Using Plate Reader - 2078-04_Inhibitor_Dose_DryPowder_Activity. [Related pubchem assays (depositor defined):AID488894]; type: functional; details: Homo sapiens
[17] = system: H4; test: Inhibitors of Prion Protein 5' UTR mRNA Measured in Cell-Based System Using Plate Reader - 2078-01_Inhibitor_Dose_DryPowder_Activity. [Related pubchem assays (depositor defined):AID488894]; type: functional; details: Homo sapiens
[18] = inhibitors of HIV Env-driven cell fusion, dose response, cherry-pick (AID 652057); type: functional, cell-based
[19] = ZM109 Env clade C HIV-1 fusion inhibitors, dose response, HeLa effector, CEM target cells, luciferase, cherry-pick (AID 652058); type: functional, cell-based
[20] = target: Paired box protein Pax-8 (Homo sapiens, UniProt Q06710); test: inhibitors of PAX8-driven TPO luciferase reporter, dose response, RMG-I cells, cherry-pick (AID 687027); type: functional, cell-based;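 note: luciferase reporter driven by Pax8 target thyroperoxidase promoter measured by SteadyGlo luminescence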
[21] = off-target signal loss in HeLa-CEM21 co-culture – HeLa F-luc CTL cells, cherry-picked, counter-screen for HIV-1 Env fusion inhibitor project, dose response (AID 652040); type: functional, cell-based;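 note: potency for signal decrease marking cytotoxic or nonspecific inhibition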
[22] = inhibitors of clade B AD8 Env fusion, dose response, cell-based, cherry-pick (AID 652062); type: functional;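 note: luciferase signal from cell-cell fusion driven by HIV-1 clade B AD8 Env; potency is for inhibitors of fusion seen as a drop in luminescence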
[23] = LGR2 antagonists, dose response, cell-based, HEK293, CRE-luciferase reporter, cherry pick, set 2 (AID 743343); type: functional;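 note: transfected cells were stimulated with diluted bursicon conditioned medium after compound addition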
[24] = MC4R antagonists, dose response, counter-screen for LGR2 antagonist project, cell-based, plate reader, cherry pick (AID 743444); type: functional;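 note: transfected HEK 293 cells stimulated with alpha-MSH peptide; potency of inhibitors of the alpha-MSH evoked signal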
[25] = target: Benomyl/methotrexate resistance protein (Candida albicans, UniProt P28873); test: CaMdr1 efflux pump inhibitor potency, dose response, singleplex, Cherry Pick1 hits (AID 588608); type: functional
[26] = target: Multidrug resistance protein CDR1 (Candida albicans, UniProt P43071); test: CaCdr1 efflux pump inhibitor potency, dose response, singleplex, Cherry Pick2 set (AID 623996); type: functional; details: read-out: EC50_MICROM
[27] = system: CHO; test: cytotoxicity in TLR9-MyD88 CHO cells, dose response, cytotoxicity control for TLR9-MyD88 binding inhibitor project, cell-based, luminescence (AID 588339); type: functional, hamster; details: Cricetulus griseus;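 note: CHO cells stably coexpressing TLR9 and MyD88 fusions from primary screen; compound exposure lasted 48 hours before viability readout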
[28] = target: T2, Endoribonuclease toxin MazF (Escherichia coli K-12, UniProt P0AE70); test: MazF toxin RNase activators, dose response, biochemical, fluorescence, single-stranded RNA substrate, uHTS hits (AID 588481); type: functional
T2 sequence (P0AE70 whole entry): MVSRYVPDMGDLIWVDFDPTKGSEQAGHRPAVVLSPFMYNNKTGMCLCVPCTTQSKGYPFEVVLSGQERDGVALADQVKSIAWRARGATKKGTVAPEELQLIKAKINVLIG

[29] = target: Beta Lactamase (Pseudomonas aeruginosa, UniProt Q932Y6); test: beta-lactamase reporter inhibitor potency, dose response, artefact control for TLR9-MyD88 binding inhibitor project, BLA reporter cells, FRET fluorescence (AID 588341); type: cell-based;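 note: cell based assay in CHO-K1 cells stably expressing beta-lactamase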
[30] = target: T2, Endoribonuclease toxin MazF; test: fluorescent RNA oligo signal without MazF, dose response, counter-screen for MazEF activator project, biochemical, fluorescence, single-stranded RNase substrate (AID 588502); type: functional
[31] = system: BJ; test: cytotoxicity toward BJ-TERT fibroblasts, dose response, cell-based, RAS-independent, luminescence (AID 1933); type: functional; details: Homo sapiens
[32] = system: BJ; test: cells; type: functional, cell-based; details: Homo sapiens
[33] = system: BJ; test: cytotoxicity toward BJ-TERT-LT-ST fibroblasts, dose response, cell-based, RAS-independent, luminescence (AID 1935); type: functional; details: Homo sapiens;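 note: BJ fibroblasts immortalized with TERT plus LT and ST oncogenes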
[34] = cytotoxicity toward DRD oncogenic fibroblasts, dose response, cell-based, non-viral oncogenic, luminescence (AID 1934); type: functional; details: Homo sapiens
[35] = system: BJ; test: cytotoxicity toward Ras-transformed BJeLR fibroblasts, dose response, cell-based, alamar blue fluorescence, cherrypicked samples (AID 2631); type: functional; details: Homo sapiens;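 note: confirmatory dose-response assay in RAS-dependent BJ fibroblasts engineered with TERT, LT and ST, with cytotoxicity read by fluorescence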
[36] = target: Phosphorylase b kinase gamma catalytic chain, liver/testis isoform (Homo sapiens, UniProt P15735); type: functional;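 note: PHKG2 measured as one member of a kinome-wide kinase panel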
[37] = target: Platelet-activating factor acetylhydrolase 2, cytoplasmic (Mus musculus, UniProt Q8VDG7); test: Late stage assay provider results from the probe development effort to identify inhibitors of PAFAH2: Fluorescence-based biochemical gel-based Activity-Based Protein Profiling (ABPP) IC50. [Related pubchem assays (depositor defined):AID492956, AID492969, AID493030]
[38] = system: INS1; test: protection of INS-1E cells from cytokine death, dose response, ATP luminescence, dry powder (AID 488844); type: functional, cell-based; details: Rattus norvegicus
[39] = system: INS1; test: inhibitors of cytokine-induced nitrite release, dose response, cell-based, Griess absorbance, INS-1E, dry powder, set 2 (AID 488868); type: functional; details: Rattus norvegicus
[40] = THP-1 cell cytotoxicity, cytotoxicity control, set 4 (AID 504911); type: functional; details: Mycobacterium tuberculosis
[41] = THP-1 cell cytotoxicity, dose response, cytotoxicity control, set 3 (AID 504852); type: functional; details: Mycobacterium tuberculosis

Chain of Dual specificity protein kinase CLK1 (P49759 whole entry): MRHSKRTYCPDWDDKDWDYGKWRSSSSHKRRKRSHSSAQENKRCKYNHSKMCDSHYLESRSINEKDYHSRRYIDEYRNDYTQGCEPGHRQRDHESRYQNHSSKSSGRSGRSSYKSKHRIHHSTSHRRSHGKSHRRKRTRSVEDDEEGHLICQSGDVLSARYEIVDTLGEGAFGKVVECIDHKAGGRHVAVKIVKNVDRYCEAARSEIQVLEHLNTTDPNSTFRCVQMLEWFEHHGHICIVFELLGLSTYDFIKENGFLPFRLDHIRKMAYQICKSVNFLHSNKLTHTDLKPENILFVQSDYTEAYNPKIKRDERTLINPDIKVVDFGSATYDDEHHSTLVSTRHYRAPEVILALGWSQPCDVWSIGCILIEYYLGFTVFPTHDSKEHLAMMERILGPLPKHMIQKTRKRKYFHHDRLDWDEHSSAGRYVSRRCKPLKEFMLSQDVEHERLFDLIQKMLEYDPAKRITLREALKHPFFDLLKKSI
Chain of Benomyl/methotrexate resistance protein (P28873 whole entry): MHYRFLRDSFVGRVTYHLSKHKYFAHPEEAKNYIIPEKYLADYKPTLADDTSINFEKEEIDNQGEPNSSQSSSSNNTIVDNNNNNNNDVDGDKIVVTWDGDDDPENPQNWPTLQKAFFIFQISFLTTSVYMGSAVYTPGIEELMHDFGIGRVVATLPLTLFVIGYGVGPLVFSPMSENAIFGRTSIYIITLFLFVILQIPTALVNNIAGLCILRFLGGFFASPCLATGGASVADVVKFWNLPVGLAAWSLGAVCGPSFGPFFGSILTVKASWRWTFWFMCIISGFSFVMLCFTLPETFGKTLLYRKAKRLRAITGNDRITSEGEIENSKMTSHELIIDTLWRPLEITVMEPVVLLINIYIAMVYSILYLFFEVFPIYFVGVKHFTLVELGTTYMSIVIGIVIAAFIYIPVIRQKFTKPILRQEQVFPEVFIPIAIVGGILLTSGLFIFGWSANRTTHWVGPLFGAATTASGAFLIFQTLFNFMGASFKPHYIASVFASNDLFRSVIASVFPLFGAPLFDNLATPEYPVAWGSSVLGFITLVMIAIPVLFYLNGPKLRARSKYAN
Chain of Paired box protein Pax-8 (Q06710 whole entry, the tested form may be a part): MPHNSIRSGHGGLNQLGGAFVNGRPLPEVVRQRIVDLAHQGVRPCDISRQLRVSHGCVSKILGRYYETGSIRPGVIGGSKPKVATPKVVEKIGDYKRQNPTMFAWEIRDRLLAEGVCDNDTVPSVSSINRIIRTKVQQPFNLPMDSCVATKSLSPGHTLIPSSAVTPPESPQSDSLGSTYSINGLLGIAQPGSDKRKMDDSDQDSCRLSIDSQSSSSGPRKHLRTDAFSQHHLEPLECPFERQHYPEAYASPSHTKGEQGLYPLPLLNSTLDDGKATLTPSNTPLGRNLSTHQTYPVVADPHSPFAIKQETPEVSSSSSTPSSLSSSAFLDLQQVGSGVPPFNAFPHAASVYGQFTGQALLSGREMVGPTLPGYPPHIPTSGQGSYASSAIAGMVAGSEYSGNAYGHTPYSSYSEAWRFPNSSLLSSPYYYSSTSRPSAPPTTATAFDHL
Chain of Multidrug resistance protein CDR1 (P43071 whole entry, looked up, the tested form may be a part): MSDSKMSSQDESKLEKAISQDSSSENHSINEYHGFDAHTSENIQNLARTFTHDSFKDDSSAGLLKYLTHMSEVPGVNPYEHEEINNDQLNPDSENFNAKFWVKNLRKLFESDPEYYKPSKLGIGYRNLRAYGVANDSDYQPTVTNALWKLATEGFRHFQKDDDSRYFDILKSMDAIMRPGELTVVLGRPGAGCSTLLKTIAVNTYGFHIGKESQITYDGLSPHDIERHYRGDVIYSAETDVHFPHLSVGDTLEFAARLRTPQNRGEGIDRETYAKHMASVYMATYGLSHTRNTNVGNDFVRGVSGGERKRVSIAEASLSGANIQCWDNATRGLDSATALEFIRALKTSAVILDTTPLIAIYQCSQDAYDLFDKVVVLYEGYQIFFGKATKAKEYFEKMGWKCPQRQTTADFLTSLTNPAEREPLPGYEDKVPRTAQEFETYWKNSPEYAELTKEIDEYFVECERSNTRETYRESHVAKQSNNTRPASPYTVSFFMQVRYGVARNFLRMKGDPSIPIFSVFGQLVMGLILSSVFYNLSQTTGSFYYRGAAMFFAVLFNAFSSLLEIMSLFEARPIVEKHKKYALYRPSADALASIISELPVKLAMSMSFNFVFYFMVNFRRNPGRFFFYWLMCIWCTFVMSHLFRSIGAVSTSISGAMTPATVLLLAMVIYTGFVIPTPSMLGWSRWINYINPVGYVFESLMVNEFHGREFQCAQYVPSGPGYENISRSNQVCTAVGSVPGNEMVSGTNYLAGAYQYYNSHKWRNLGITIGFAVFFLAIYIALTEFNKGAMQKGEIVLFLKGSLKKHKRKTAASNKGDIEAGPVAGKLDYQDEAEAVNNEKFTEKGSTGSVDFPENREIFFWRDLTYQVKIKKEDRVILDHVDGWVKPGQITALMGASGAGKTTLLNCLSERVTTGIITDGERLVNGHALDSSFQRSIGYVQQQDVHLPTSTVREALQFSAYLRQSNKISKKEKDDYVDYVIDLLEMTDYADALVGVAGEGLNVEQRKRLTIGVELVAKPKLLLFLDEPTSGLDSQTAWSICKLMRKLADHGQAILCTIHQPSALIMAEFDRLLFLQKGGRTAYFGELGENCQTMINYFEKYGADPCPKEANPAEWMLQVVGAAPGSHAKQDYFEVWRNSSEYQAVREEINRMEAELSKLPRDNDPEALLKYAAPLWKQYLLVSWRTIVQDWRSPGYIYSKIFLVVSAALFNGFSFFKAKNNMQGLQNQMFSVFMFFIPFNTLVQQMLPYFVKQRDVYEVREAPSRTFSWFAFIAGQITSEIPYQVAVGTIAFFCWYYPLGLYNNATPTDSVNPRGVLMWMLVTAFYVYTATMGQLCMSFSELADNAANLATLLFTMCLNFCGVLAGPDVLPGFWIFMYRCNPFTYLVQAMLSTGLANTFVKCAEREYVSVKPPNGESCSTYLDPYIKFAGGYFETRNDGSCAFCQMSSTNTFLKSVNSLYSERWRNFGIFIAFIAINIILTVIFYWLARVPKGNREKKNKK
Chain of Luciferin 4-monooxygenase (P08659 whole entry): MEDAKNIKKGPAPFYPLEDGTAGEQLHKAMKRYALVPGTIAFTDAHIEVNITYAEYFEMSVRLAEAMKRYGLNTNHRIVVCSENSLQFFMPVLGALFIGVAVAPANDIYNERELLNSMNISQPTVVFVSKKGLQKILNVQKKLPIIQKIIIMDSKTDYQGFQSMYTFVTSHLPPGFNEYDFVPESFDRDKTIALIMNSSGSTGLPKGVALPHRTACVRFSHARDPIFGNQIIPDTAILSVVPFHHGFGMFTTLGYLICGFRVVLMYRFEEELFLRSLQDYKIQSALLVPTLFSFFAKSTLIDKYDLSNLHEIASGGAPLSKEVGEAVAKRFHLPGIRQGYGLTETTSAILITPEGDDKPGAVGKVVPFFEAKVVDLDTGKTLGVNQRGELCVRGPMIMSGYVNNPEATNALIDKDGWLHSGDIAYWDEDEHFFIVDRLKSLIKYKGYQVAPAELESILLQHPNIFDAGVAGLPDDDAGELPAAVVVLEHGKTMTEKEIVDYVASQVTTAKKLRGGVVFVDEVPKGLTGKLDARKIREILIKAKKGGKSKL
Chain of Melanocortin receptor 4 (P32245 whole entry): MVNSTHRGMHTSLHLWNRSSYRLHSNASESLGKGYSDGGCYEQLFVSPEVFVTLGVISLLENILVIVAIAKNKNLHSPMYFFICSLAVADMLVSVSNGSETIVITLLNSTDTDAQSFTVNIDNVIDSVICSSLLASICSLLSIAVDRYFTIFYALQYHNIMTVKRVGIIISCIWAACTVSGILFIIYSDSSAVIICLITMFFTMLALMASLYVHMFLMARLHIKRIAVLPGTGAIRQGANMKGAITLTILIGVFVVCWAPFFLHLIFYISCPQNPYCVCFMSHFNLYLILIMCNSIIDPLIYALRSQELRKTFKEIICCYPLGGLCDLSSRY
Chain of Glycogen synthase kinase-3 beta (P49841 whole entry): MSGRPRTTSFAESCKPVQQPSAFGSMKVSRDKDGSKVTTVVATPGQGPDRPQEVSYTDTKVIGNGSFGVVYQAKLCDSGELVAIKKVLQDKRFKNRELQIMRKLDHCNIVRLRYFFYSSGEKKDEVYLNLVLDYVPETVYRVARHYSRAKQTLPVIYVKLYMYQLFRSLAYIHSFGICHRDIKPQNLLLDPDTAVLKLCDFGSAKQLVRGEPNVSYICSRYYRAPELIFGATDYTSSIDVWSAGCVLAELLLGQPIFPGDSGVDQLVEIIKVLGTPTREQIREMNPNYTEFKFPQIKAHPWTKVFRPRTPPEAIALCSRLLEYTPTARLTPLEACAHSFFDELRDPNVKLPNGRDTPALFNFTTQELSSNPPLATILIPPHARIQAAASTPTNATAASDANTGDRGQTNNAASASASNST
Chain of Beta Lactamase (Q932Y6 whole entry): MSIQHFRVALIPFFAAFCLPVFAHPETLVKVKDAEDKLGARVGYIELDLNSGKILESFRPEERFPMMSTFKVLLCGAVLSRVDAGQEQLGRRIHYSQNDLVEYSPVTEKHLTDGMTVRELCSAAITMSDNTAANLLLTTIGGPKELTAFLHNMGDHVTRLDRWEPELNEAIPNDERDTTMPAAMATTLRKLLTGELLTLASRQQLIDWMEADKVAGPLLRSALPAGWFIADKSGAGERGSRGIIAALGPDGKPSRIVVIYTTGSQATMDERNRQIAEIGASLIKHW
Chain of Platelet-activating factor acetylhydrolase 2, cytoplasmic (Q8VDG7 whole entry): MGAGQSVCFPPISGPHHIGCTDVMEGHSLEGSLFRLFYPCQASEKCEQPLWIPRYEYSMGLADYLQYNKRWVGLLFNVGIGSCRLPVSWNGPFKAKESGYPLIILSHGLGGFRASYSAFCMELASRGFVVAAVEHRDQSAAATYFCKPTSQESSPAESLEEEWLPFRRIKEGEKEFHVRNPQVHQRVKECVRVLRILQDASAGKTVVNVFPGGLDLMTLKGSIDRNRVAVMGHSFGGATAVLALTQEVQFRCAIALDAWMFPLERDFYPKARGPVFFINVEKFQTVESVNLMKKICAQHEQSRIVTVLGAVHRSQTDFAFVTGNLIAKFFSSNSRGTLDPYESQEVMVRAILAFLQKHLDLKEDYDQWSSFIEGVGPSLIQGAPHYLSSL

Structure (SMILES): CCOC(=O)c1ccc2ncc(C(=O)OCC)c(Nc3ccc(N4CCOCC4)cc3)c2c1
- EC50 [1]: 18.5 µM (active)
- EC50 [2]: 21.4 µM (active)
- AC50 [3]: 3.56 µM (active)
- AC50 [4]: 1.16 µM (active)
- AC50 [5]: 227 nM (active)
- AC50 [6]: 257 nM (active)
- IC50 [7]: 8.67 µM (active)
- IC50 [8]: > 64.6 µM (inactive)

Structure (SMILES): CCc1cccc(C)c1NC(=O)c1ccc(CN2CCc3ccccc3C2)cc1
- IC50 [9]: 3.88 µM (active)
- IC50 [10]: 7.94 µM (active)

Structure (SMILES): O=C(Nc1cccc(C(=O)O)c1)Nc1ccc2c(c1)OCO2
- IC50 [11]: > 39.8 µM (not active)
- IC50 [12]: 1.77 µM (active)
- IC50 [13]: > 80 µM (inactive)
- AC50 [14]: 3.34 µM (active)
- AC50 [15]: 1.97 µM (active)
- AC50 [16]: 145 nM (active)
- AC50 [17]: 333 nM (active)
- AC50 [18]: 605 nM (active)
- AC50 [19]: 5.37 µM (active)
- AC50 [20]: 5.13 µM (active)
- AC50 [21]: 1.81 µM (active)
- AC50 [22]: 2.74 µM (active)
- AC50 [23]: 1.53 µM (active)
- AC50 [24]: 1.47 µM (active)

Structure (SMILES): COc1ccc(S(=O)(=O)N(C)C[C@H]2Oc3c(NC(=O)NC4CCCCC4)cccc3C(=O)N([C@H](C)CO)C[C@@H]2C)cc1
- EC50 [25]: 10.1 µM (active)
- EC50 [26]: 10.4 µM (active)

Structure (SMILES): Cn1cccc1/C=C1\CCC/C(=C\c2cccn2C)C1=O
- IC50 [27]: > 49.8 µM (inactive)
- EC50 [28]: > 99 µM (inactive)
- IC50 [29]: 10.9 µM (inactive)
- EC50 [30]: 23.9 µM (inactive)

Structure (SMILES): Cc1nc(=O)c2cc(CN(C)c3ccc(C(=O)N[C@@H](CCC(=O)O)C(=O)O)s3)ccc2[nH]1 [RALTITREXED]
- EC50 [31]: > 150 µM (not active)
- EC50 [32]: 192 nM (inconclusive)
- EC50 [33]: > 150 µM (inconclusive)
- EC50 [34]: > 150 µM (inconclusive)
- EC50 [35]: > 133 µM (inactive)

Structure (SMILES): NC(=O)c1cccc2[nH]c(-c3ccncc3)nc12
- Ki [36]: 1 µM (active)

Structure (SMILES): O=C(N1CCCC1)n1ncc(-c2ccc(Oc3ccccc3)cc2)n1
- IC50 [37]: 2 nM (active)

Structure (SMILES): C[C@@H]1CN([C@H](C)CO)C(=O)c2cccc(NC(=O)Nc3ccccc3)c2O[C@H]1CN(C)S(=O)(=O)c1ccc(Cl)cc1
- AC50 [38]: 22.4 µM (active)
- AC50 [39]: 41.6 µM (active)

Structure (SMILES): O=C(CSc1ccccn1)NC1CCCCC1
- CC50 [40]: > 100 µM (active)
- CC50 [41]: > 100 µM (active)
